# Assay results as given in ChEMBL document CHEMBL1201862, “PubChem BioAssay data set” (2004).
#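 How tested: cells in 96-well plates exposed to compound for 48 hours at five concentrations. The concentration for 50% growth inhibition is given as GI50.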 Activity calls are given as the source filed them. Rule as the data show it: active = GI50 up to about 1.1 µM and inactive = higher.
# How the values were obtained:
# Test in all cases: NCI tumour cell line growth inhibition, 48 h
# KM12 = system: KM12
# HCT-15 = system: HCT-15
# SK-MEL-2 = system: SK-MEL-2
# HOP-62 = system: HOP-62
# SK-OV-3 = system: SK-OV-3
# HCC 2998 = system: HCC 2998
# NCI-H23 = system: NCI-H23
# MOLT-4 = system: MOLT-4
# NCI-H226 = system: NCI-H226
# OVCAR-5 = system: OVCAR-5
# MCF7 = system: MCF7
# IGROV-1 = system: IGROV-1
# Hs-578T = system: Hs-578T
# EKVX = system: EKVX
# ACHN = system: ACHN
# UACC-257 = system: UACC-257
# SR = system: SR
# SNB-19 = system: SNB-19
# LOX IMVI = system: LOX IMVI
# SF-539 = system: SF-539
Structure (SMILES),GI50 (KM12),GI50 (HCT-15) [µM],GI50 (SK-MEL-2),GI50 (HOP-62),GI50 (SK-OV-3),GI50 (HCC 2998),GI50 (NCI-H23),GI50 (MOLT-4),GI50 (NCI-H226),GI50 (OVCAR-5),GI50 (MCF7),GI50 (IGROV-1),GI50 (Hs-578T),GI50 (EKVX),GI50 (ACHN),GI50 (UACC-257),GI50 (SR),GI50 (SNB-19),GI50 (LOX IMVI),GI50 (SF-539)
CCn1ncc2c(=O)n3ncn(-c4ccc(Br)cc4)c3nc21,> 100 µM (inactive),> 100,> 100 µM (inactive),> 100 µM (inactive),> 100 µM (inactive),> 100 µM (inactive),> 100 µM (inactive),> 100 µM (inactive),> 100 µM (inactive),> 100 µM (inactive),> 100 µM (inactive),> 100 µM (inactive),> 100 µM (inactive),> 100 µM (inactive),> 100 µM (inactive),> 100 µM (inactive),58.1 µM (inactive),> 100 µM (inactive),,
COc1ccc(C2SC(=N)Nc3c2c(C)nn3C(=O)Cc2ccccc2)cc1 (stereo not drawn),> 100 µM (inactive),> 100,,> 100 µM (inactive),> 100 µM (inactive),> 100 µM (inactive),> 100 µM (inactive),> 100 µM (inactive),> 100 µM (inactive),,> 100 µM (inactive),> 100 µM (inactive),> 100 µM (inactive),> 100 µM (inactive),> 100 µM (inactive),> 100 µM (inactive),> 100 µM (inactive),> 100 µM (inactive),> 100 µM (inactive),> 100 µM (inactive)
COC(=O)CCCc1ccc2c(c1)CC1(C2)Cc2cc3c(cc2C1)CCCC3,36.9 µM (inactive),14,22.6 µM (inactive),34.8 µM (inactive),> 100 µM (inactive),26.7 µM (inactive),61.9 µM (inactive),11.6 µM (inactive),38.1 µM (inactive),> 100 µM (inactive),44.6 µM (inactive),44.9 µM (inactive),29.9 µM (inactive),35.2 µM (inactive),42.7 µM (inactive),33.8 µM (inactive),< 0.01 µM (active),,30.3 µM (inactive),37.8 µM (inactive)
CC(=O)CCN1CC2CN=NC2(C#N)C1 (stereo not drawn),> 100 µM (inactive),69,> 100 µM (inactive),> 100 µM (inactive),,> 100 µM (inactive),> 100 µM (inactive),14.7 µM (inactive),20.7 µM (inactive),> 100 µM (inactive),35.2 µM (inactive),> 100 µM (inactive),1.65 µM (inactive),> 100 µM (inactive),24.8 µM (inactive),> 100 µM (inactive),> 100 µM (inactive),> 100 µM (inactive),49 µM (inactive),
N#CC1(C#N)C(C#N)(C#N)C1(C#N)C(N)=O,> 100 µM (inactive),> 100,> 100 µM (inactive),> 100 µM (inactive),> 100 µM (inactive),> 100 µM (inactive),> 100 µM (inactive),> 100 µM (inactive),> 100 µM (inactive),> 100 µM (inactive),> 100 µM (inactive),> 100 µM (inactive),> 100 µM (inactive),> 100 µM (inactive),> 100 µM (inactive),> 100 µM (inactive),> 100 µM (inactive),> 100 µM (inactive),> 100 µM (inactive),
O=C(NC(CCCCN1C(=O)c2ccccc2C1=O)P(=O)(Oc1ccccc1)Oc1ccccc1)OCc1ccccc1 (stereo not drawn),> 100 µM (inactive),> 10,> 100 µM (inactive),71.8 µM (inactive),> 100 µM (inactive),> 100 µM (inactive),7.33 µM (inactive),,> 100 µM (inactive),> 100 µM (inactive),> 100 µM (inactive),> 100 µM (inactive),> 100 µM (inactive),> 100 µM (inactive),> 100 µM (inactive),> 100 µM (inactive),> 100 µM (inactive),> 100 µM (inactive),,> 100 µM (inactive)
COc1cccc(CCNc2c(C#N)c3n(c4ccccc4[n+]3C)c3ncccc23)c1,2 µM (inactive),1.75,21.4 µM (inactive),17.5 µM (inactive),20.3 µM (inactive),1.93 µM (inactive),20.3 µM (inactive),2.55 µM (inactive),20.9 µM (inactive),15.3 µM (inactive),1.52 µM (inactive),,7.31 µM (inactive),17.3 µM (inactive),16.7 µM (inactive),21.9 µM (inactive),> 100 µM (inactive),5.9 µM (inactive),1.74 µM (inactive),1.58 µM (inactive)
O=c1[nH]nc(Cc2ccc([N+](=O)[O-])cc2)[nH]1,> 100 µM (inactive),> 100,> 100 µM (inactive),> 100 µM (inactive),,> 100 µM (inactive),> 100 µM (inactive),> 100 µM (inactive),> 100 µM (inactive),> 100 µM (inactive),> 100 µM (inactive),> 100 µM (inactive),75 µM (inactive),54.6 µM (inactive),> 100 µM (inactive),> 100 µM (inactive),> 100 µM (inactive),> 100 µM (inactive),> 100 µM (inactive),> 100 µM (inactive)
Cc1nc2[nH]ccn2c(=O)c1CCCl,20.4 µM (inactive),39.7,,23.6 µM (inactive),26.5 µM (inactive),19.2 µM (inactive),18.3 µM (inactive),14.8 µM (inactive),> 100 µM (inactive),> 100 µM (inactive),68.1 µM (inactive),26.2 µM (inactive),37.6 µM (inactive),> 100 µM (inactive),23.1 µM (inactive),94.2 µM (inactive),24.2 µM (inactive),57.1 µM (inactive),16.6 µM (inactive),17.1 µM (inactive)
CCOC(=O)Nc1cc2ccccc2c(/N=N/c2ccccc2)c1O,> 100 µM (inactive),> 100,> 100 µM (inactive),27.9 µM (inactive),17.2 µM (inactive),> 100 µM (inactive),> 100 µM (inactive),> 100 µM (inactive),> 100 µM (inactive),> 100 µM (inactive),56.4 µM (inactive),59.7 µM (inactive),25.2 µM (inactive),> 100 µM (inactive),> 100 µM (inactive),> 100 µM (inactive),> 100 µM (inactive),84.1 µM (inactive),,13 µM (inactive)
C=C(C)[C@H]1C=C[C@@H](OC(C)=O)[C@@]2(COC(C)=O)[C@H](OC(=O)CCC)[C@H]3[C@@H](OC(C)=O)[C@@H](C)C[C@]3(O)C(=O)[C@@](C)(OC(C)=O)[C@H]12,39.9 µM (inactive),36.2,87.3 µM (inactive),,,27.1 µM (inactive),39.3 µM (inactive),33.6 µM (inactive),40.1 µM (inactive),60.4 µM (inactive),42.3 µM (inactive),32.1 µM (inactive),43.1 µM (inactive),38.2 µM (inactive),34.2 µM (inactive),39.4 µM (inactive),36.3 µM (inactive),66.2 µM (inactive),29.5 µM (inactive),
